Source: article PMC13087548, “The Use of DeepQSAR Models for the Discovery of Peptides With Enhanced Antimicrobial and Antibiofilm Potential” (Molecular Informatics, 2026)
Like-named read-outs stand apart in the source and are kept apart here. Ends that are not written are not given here. Peptide text beside a SMILES is read from it.

Assays:
human red blood cells = test: Hemolysis assay; assay type: cell-based
Text: (§1) To evaluate the safety profiles of predicted peptides, we conducted hemolysis and PBMC cytotoxicity assays on three representative candidates (J20: LKIKVHIYRMKR, J28: FRVCYRGICYRR, J39: […]). These peptides were randomly selected from the top 22 peptides predicted by our classification model to outperform the reference peptide IDR‐1018 in antibiofilm activity. All three peptides were synthesized at > 95% purity and tested in standard in vitro assays.

human PBMCs = test: PBMC cytotoxicity assay; assay type: cell-based
Text: as §1

[1] = test system: methicillin‐resistant Staphylococcus aureus (MRSA); conditions: read-out: IC50 antimicrobial (planktonic); MRSA in 10% tryptic soy broth + 0.1% glucose, overnight 37°C, growth by OD600; peptide array samples; nplr fit
Protocol: (§2) Peptide arrays on cellulose membranes were made by Kinexus Bioinformatics Corporation (Vancouver, BC, Canada) and were obtained as cleaved free peptide associated with the punched‐out spot of the cellulose membrane. Stock solutions of the peptide array samples were prepared by dissolving the free peptide in 200 µL of endotoxin‐free sterile water, incubating at room temperature for ~ 1 h, and then transferring the resulting peptide solution to a sterile microfuge tube for subsequent antimicrobial activity assays. The concentration of the stock peptide array samples was determined by measuring the absorbance at 280 nm of the solution (in duplicate) on a BioTek Epoch Microplate Spectrophotometer using the Take3TM Multi‐Volume Plate. A theoretical extinction coefficient of each peptide was determined based on the number of Trp and Try residues1 in the peptide sequence according to the formula: (#Trp) × 5500 M^− ^1 cm^− ^1 + (#Tyr) × 1490 M^− ^1 cm^− ^1, and the concentration of the peptide in solution was calculated according to the Beer–Lambert law. Any Cys residues within the peptide samples were assumed not to be present in a disulfide bond, so their contribution to the extinction coefficient at 280 nm was ignored.
(§3) Peptides were synthesized on peptide arrays and tested as described previously. Briefly, the antimicrobial activity and biofilm inhibition activity of the peptide array samples were assessed against methicillin‐resistant Staphylococcus aureus (MRSA). Briefly, twofold serial dilutions of the peptide array sample (10 μL final volume) were prepared in 96‐well plates and then 90 μL of a 1:100 dilution of an overnight culture of MRSA diluted in 10% tryptic soy broth supplemented with 0.1% glucose was added to each well and the plates were incubated overnight at 37°C. The following day, bacterial growth was quantified by measuring the optical density at 600 nm (OD600) of each sample well while the amount of biofilm was quantified by rinsing the wells of the plate with distilled water and staining the adhered biomass with 0.1% crystal violet solution. The amount of adhered biomass was quantified by recording the absorbance at 595 nm (A595). Dose–response curves were drawn for each peptide based on the bacterial growth (OD600) or biofilm inhibition (A595) and normalizing the percent of peptide inhibition relative to untreated bacteria (100% growth) or sterile media (0% growth). The concentration of peptide required to inhibit 50% of bacterial or biofilm growth (IC50) was calculated by nonlinear regression fit of the dose–response curves using the N‐Parameter Logistic Regression (nplr) package.

[2] = test system: methicillin‐resistant Staphylococcus aureus (MRSA) biofilm; conditions: read-out: IC50 Biofilm; MRSA in 10% tryptic soy broth + 0.1% glucose, overnight 37°C, adhered biomass stained with 0.1% crystal violet, A595; peptide array samples; nplr fit
Protocol: as §2, §3

biofilm = test: Minimum biofilm inhibitory concentration (MBIC); assay type: cell-based; conditions: peptides > 95% purity; Table S1

CC[C@H](C)[C@H](NC(=O)CNC(=O)[C@H](CCCNC(=N)N)NC(=O)[C@H](Cc1ccc(O)cc1)NC(=O)[C@H](CS)NC(=O)[C@@H](NC(=O)[C@H](CCCNC(=N)N)NC(=O)[C@@H](N)Cc1ccccc1)C(C)C)C(=O)N[C@@H](CS)C(=O)N[C@@H](Cc1ccc(O)cc1)C(=O)N[C@@H](CCCNC(=N)N)C(=O)N[C@@H](CCCNC(=N)N)C(N)=O [compound 28] (H-FRVCYRGICYRR-NH2; N-terminus assumed)
Hemolysis IC50 (human red blood cells; red cells of human): > 250 µg/mL
PBMC IC50 (cytotoxicity) (human PBMCs): > 250 µg/mL

GLKSFARVLKKI-NH2 [compound 33]
IC50 [1]: 1150 nM

KLVRRKGRLYVI-NH2 [compound 50]
IC50 [2]: 400 nM

LFKFLGKKVLKT-NH2 [compound 9]
IC50 [2]: 470 nM

LKIKVHIYRMKR-NH2 [compound 20]
IC50 [2]: 350 nM
Hemolysis IC50 (human red blood cells; red cells of human): > 250 µg/mL
PBMC IC50 (cytotoxicity) (human PBMCs): 166.1 µg/mL
Biofilm-inhibitory concentration (MBIC) (biofilm): 1 to 4 µg/mL

RALKKIIKRLCR-NH2 [compound 86]
IC50 [2]: 380 nM
IC50 [1]: 710 nM

RARGRKRLVVTI-NH2 [compound 40]
IC50 [2]: 300 nM

RGFVRLKKWFNI-NH2 [compound 39]
IC50 [2]: 230 nM
Hemolysis IC50 (human red blood cells; human erythrocytes, concentration range 1–256 μg/mL, peptides > 95% purity): > 250 µg/mL
PBMC IC50 (cytotoxicity) (human PBMCs; human PBMCs, peptides > 95% purity): > 250 µg/mL
Biofilm-inhibitory concentration (MBIC) (biofilm): 1 to 4 µg/mL

RLHGFLIRMRTR-NH2 [compound 44]
IC50 [1]: 1190 nM

RRRAKGRIRLIV-NH2 [compound 62]
IC50 [1]: 890 nM

RVVRRKGRIYIL-NH2 [compound 81]
IC50 [2]: 440 nM

VRLIVAVRIWRR-NH2 [IDR‐1018, reference compound]
IC50 [2]: 1420 nM
IC50 [1]: 1730 nM

WKKKGRMRWKWI-NH2 [compound 10]
IC50 [2]: 270 nM
